In a flash point compilation (Sun et al. 2020):

| SMILES | flash point [°C] |
| --- | --- |
| OCCCCl [3-chloro-1-propanol] | 73 |
| C=CCCC(C)C [5-methyl-1-hexene] | -10 |
| CC(C)(C)Nc1ccccc1 [N-tert-butylaniline] | 88 |
| CCCCCCC(C)(C)C [2,2-dimethyloctane] | 31 |
| C=CCCCCCCCCO [9-decen-1-ol] | 119 |
| CCCCCC(=O)CCCCC [6-undecanone] | 88 |
| CC/C=C\CCCC [cis-3-octene] | 14 |
| CCOC(=O)CC [ethylpropanoate] | 12 |
| CCCCNc1ccccc1 [N-butylaniline] | 107 |
| CC(C)CCCO [4-methyl-1-pentanol] | 51 |
| OCCOCCO [diethyleneglycol] | 124 |
| COC1CCCCC1=O (stereo not drawn) [2-methoxycyclohexanone] | 69 |
| CCC(C)c1ccccc1N (stereo not drawn) [2-sec-butylaniline] | 102 |
| Oc1ccccc1Cl [2-chlorophenol] | 72 |
| O=C1CCCC1 [cyclopentanone] | 26 |
| CCCCCCCCS [1-octanethiol] | 68 |
| CC(O)CO (stereo not drawn) [1,2-propanediol] | 99 |
| CC(C)c1ccc(C(C)C)cc1 [1,4-diisopropylbenzene] | 76 |
| CCC(CC)CO [2-ethyl-1-butanol] | 57 |
| CC(C)c1cccc(C(C)C)c1N [2,6-diisopropylaniline] | 123 |
| C=Cc1cccc(C)c1 [3-methylstyrene] | 48 |
| CCCCCCCCCN [nonylamine] | 74 |

| SMILES | flash point [°C] |
| --- | --- |
| CCC(C)CCC(=O)O (stereo not drawn) [4-methylhexanoicacid] | 103 |
| C/C=C\C(C)C [cis-4-methyl-2-pentene] | -33 |
| CCCCC(CC)CO (stereo not drawn) [2-ethyl-1-hexanol] | 74 |
| CCCCCCCCCC(C)O (stereo not drawn) [2-undecanol] | 107 |
| C=C(C)C=O [2-methyl-2-propenal] | -15 |
| CCC=O [propanal] | -27 |
| CCC(C)C(C)(C)CC (stereo not drawn) [3,3,4-trimethylhexane] | 15 |
| CCc1ccc(C)cc1C [1-ethyl-2,4-dimethylbenzene] | 57 |
| CC(C)CC(=O)O [3-methylbutanoicacid] | 74 |
| C[C@H]1CC[C@H](O)CC1 [trans-4-methylcyclohexanol] | 70 |
| BrC1CCCC1 [bromocyclopentane] | 35 |
| C1CC[C@H]2CCCC[C@@H]2C1 [trans-decalin] | 53 |
| CCCc1cccc(C)c1C [1,2-dimethyl-3-propylbenzene] | 72 |
| IC1CCCC1 [iodocyclopentane] | 52 |
| CCCCCCCCC(=O)CC [3-undecanone] | 89 |
| CCCCCOC(=O)c1ccccc1 [pentylbenzoate] | 120 |
| O=CC1CCCC1 [cyclopentanecarboxaldehyde] | 28 |
| C=CCCCCCCCCCCCCCCCC [1-octadecene] | 154 |
| SC1CCCCC1 [cyclohexanethiol] | 41 |
| CN(C)CCO [2-dimethylaminoethanol] | 41 |
| CCCCCCC(=O)CCC [4-decanone] | 71 |
| OC1CCCCCCC1 [cyclooctanol] | 88 |

| SMILES | flash point [°C] |
| --- | --- |
| CCC(=O)C(C)C [2-methyl-3-pentanone] | 16 |
| CCC1CCCC1 [ethylcyclopentane] | -4 |
| COc1ccccc1OC [1,2-dimethoxybenzene] | 87 |
| CCCC(C)(C)C(C)(C)C [2,2,3,3-tetramethylhexane] | 31 |
| C=CCO [allylalcohol] | 22 |
| CC(C)(C)C(=O)OC(=O)C(C)(C)C [pivalicanhydride] | 63 |
| CCC(Br)CC [3-bromopentane] | 19 |
| CCCCCCCCCCl [1-chlorononane] | 74 |
| CCCOC(=O)C(C)C [propyl2-methylpropanoate] | 30 |
| CCCC(I)CC (stereo not drawn) [3-iodohexane] | 55 |
| CCCC(Br)CC (stereo not drawn) [3-bromohexane] | 40 |
| CCCc1cccs1 [2-propylthiophene] | 32 |
| C1CCOC1 [tetrahydrofuran] | -21 |
| CCc1ccc(N)cc1 [4-ethylaniline] | 97 |
| CC(C)(C)O [tert-butylalcohol] | 11 |
| CCCCCCCCC#N [nonanenitrile] | 82 |
| CC(C)=CCCC(C)CC=O (stereo not drawn) [3,7-dimethyl-6-octenal] | 78 |
| Cc1ccco1 [2-methylfuran] | -26 |
| CCC(=O)OCCc1ccccc1 [2-phenylethylpropionate] | 113 |
| CCC(=O)OCc1ccco1 [furfurylpropanoate] | 82 |
| O=C1CCCC1C1CCCC1 (stereo not drawn) [2-cyclopentylcyclopentanone] | 90 |
| C1=CCCC=C1 [1,3-cyclohexadiene] | -16 |

| SMILES | flash point [°C] |
| --- | --- |
| C[C@@H]1CC(=O)C[C@H]1C (relative stereo) [trans-3,4-dimethylcyclopentanone] | 41 |
| COC(CBr)OC [2-bromo-1,1-dimethoxyethane] | 51 |
| CCC(C)C(C)C (stereo not drawn) [2,3-dimethylpentane] | -15 |
| CCc1ccc(C)cc1 [p-ethyltoluene] | 36 |
| CCCNCCO [(2-hydroxyethyl)propylamine] | 78 |
| CC#CCCCCCCC [2-decyne] | 53 |
| CSCCl [chloromethylmethylsulfide] | 17 |
| CCCC#CCCCCC [4-decyne] | 52 |
| CC(C)CCl [1-chloro-2-methylpropane] | -17 |
| CCCCCCCCI [1-iodooctane] | 95 |
| CCCCCCCCCCC(C)O (stereo not drawn) [2-dodecanol] | 113 |
| CCC(C)Cc1ccccc1 (stereo not drawn) [1-phenyl-2-methylbutane] | 64 |
| CCCCCCC(C)=O [2-octanone] | 56 |
| CC(C)CC(=O)OC(=O)CC(C)C [3-methylbutanoicanhydride] | 91 |
| CC(C)(C)C#N [2,2-dimethylpropanenitrile] | 4 |
| CCCCC[N+](=O)[O-] [1-nitropentane] | 61 |
| C1=CC2CCC1C2 [2-norbornene] | -14 |
| C=COCCC [propylvinylether] | -22 |
| Cc1cc(C)c(C)c(C)c1 [1,2,3,5-tetramethylbenzene] | 63 |
| CCCCCCCCl [1-chloroheptane] | 41 |
| CCCCC(C)CCC (stereo not drawn) [4-methyloctane] | 22 |
| CC(C)C(=O)O [2-methylpropanoicacid] | 59 |
